Source: patent US8536196B2, “Substituted 1,3-dioxanes useful as PPAR modulators” (Evolva SA, priority 2007, dated 2013)

What was measured:
Type in all cases: cell-based
[1] = system: 3T3-L1 cells; assay: Inhibition of adipocyte differentiation assay (Oil Red O staining)
Experimental: To test compounds as inhibitors of adipocyte differentiation, 3T3-L1 cells are grown as above until two-day postconfluence (designated day 0), after which the cells are induced to differentiate with DMEM containing 10% fetal bovine serum (FBS), 1 μM dexamethasone (Sigma), 0.5 mM methylisobutylxanthine (Sigma), 1 μg/ml insulin (Roche Molecular Biochemicals) and the test-compound. Cells induced to differentiate in presence of solvent of the test-compounds are used as positive control. After 48 h, the cells are re-fed with DMEM containing 10% FBS supplemented with the test compound or the positive control. From day 4, cells are grown in DMEM with 10% FBS and are changed every second day until day 8. At day 8, cells are stained with Oil Red O as described below.
Cells cultured as described above are used for Oil Red staining. Dishes are washed in PBS and cells were fixed in 3.7% paraformaldehyde for 1 h and stained with oil red O as described in (Hansen et al 1999). Oil red O solution stock solution is prepared by dissolving 0.5 g of Oil Red O (Sigma) in 100 mL of isopropanol. Oil re 0 working solution is prepared by diluting a stock solution with water (6:4) followed by filtration.

[2] = system: human cervical carcinoma cell line (HeLa); assay: Inhibition of cancer cell proliferation (flow cytometry); conditions: 48 hours of treatment, read-out: inhibition of proliferation of HeLa cells
Experimental: (§1) A human cervical carcinoma cell line (HeLa) engineered to stably express a recombinant biosensor reporter activity and a non-cancer cell line, HaCaT (Boukamp et al., 1988, J. Cell Biol 106(3):761-771) was used with a Caspa Tag kit (commercially available eg from Chemicon). The detection of proliferation was carried out using a high content screening automated flow cytometer.
(§2) DPD (Substance 1) was diluted to 20 μM in cell culture medium without serum adjusted to 1% DMSO. Detection of cellular events was performed in duplicate in 96-well plates after 48 hours of treatment in the FL2 (dilution of a proliferative marker) channels of a HTS flow cytometer (FACS Calibur HTS, Becton Dickenson). At day 1, cells were seeded in 96 well plates. Cells were treated with DPD and the appropriate controls on day 2 and analysis was carried out on day 4.

[3] = biological target: T1, hRXRαLBD (Homo sapiens, UniProt P19793); assay: RXR transactivation assay
T1 construct: expressed in transfected cells
T1 sequence (P19793 227-458 limits assumed): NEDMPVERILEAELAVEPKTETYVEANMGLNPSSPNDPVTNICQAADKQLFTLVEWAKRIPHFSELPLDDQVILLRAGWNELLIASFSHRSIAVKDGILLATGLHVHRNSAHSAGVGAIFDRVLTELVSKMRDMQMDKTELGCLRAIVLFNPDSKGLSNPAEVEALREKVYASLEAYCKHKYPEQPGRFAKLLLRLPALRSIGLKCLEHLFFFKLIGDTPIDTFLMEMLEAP
Experimental: This example describes a retinoic acid X receptor transactivation assay.
Compounds are tested for their ability to transactivate RXR essentially as described in Example 22.

[4] = biological target: T2, mPPARdeltaLBD (Mus musculus, UniProt P35396); assay: PPARdelta transactivation assay
T2 construct: expressed in transfected cells
T2 sequence (P35396 210-438 limits assumed): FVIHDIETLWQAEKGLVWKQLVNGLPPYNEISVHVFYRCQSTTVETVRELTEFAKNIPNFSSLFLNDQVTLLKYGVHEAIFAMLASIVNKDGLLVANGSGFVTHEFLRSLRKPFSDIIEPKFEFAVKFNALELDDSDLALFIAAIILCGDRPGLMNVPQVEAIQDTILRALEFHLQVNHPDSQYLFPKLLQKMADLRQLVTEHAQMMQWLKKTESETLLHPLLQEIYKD
Experimental: This example describes a transactivation assay for determining PPARdelta modulating activity.
DPD and other ligands are tested for their ability to transactivate PPARdelta essentially as described in Example 22.

[5] = biological target: T3, full length human PPARdelta (Homo sapiens, UniProt Q03181); assay: Transactivation assay with full length human PPARdelta
T3 construct: expressed in transfected cells
T3 sequence (Q03181 1-441): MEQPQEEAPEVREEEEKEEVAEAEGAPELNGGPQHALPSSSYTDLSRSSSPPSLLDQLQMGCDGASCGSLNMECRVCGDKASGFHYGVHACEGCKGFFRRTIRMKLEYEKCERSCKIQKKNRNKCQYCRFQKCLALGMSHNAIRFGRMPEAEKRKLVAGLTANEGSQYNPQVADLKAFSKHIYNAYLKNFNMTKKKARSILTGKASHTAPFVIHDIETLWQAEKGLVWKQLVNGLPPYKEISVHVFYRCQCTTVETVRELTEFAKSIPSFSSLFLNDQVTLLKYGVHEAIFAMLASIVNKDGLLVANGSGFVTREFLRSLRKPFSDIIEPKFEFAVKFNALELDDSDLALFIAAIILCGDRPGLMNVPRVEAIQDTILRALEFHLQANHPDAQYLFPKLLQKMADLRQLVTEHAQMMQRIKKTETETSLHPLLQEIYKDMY

[6] = system: 3T3-L1 preadipocytes; assay: Glucose uptake assay
Experimental: This example illustrates that compounds identified as PPARgamma agonists also produce a physiological effect in cellular assays, expected of a PPARgamma agonist, namely an effect on glucose uptake. Glucose uptake assays are important to establish the suitability of a compound for the treatment of insulin resistance.
Briefly, 3T3-L1 preadipocytes are grown in 12-well plates until confluence. Cells are washed with serum-free DMEM and incubated with 1 ml of the same medium at 37° C. for 1-2 h. The cells are then washed with Krebs-Ringer-Hepes (KRP) buffer and then incubated with 0.9 ml KRP buffer at 37° C. for 30 min. Insulin is added to the cells at 0, 0.3, 1 and 3 nM final concentrations and incubated for 15 min at 37° C. Glucose uptake is initiated by the addition of 0.1 ml of Krebs-Ringer phosphate (KRP) buffer supplemented with 10 mM [^3H] 2-deoxy-D-glucose (1 mCi/l). After 10 min incubation at 37° C., the medium is aspirated and plates washed with ice-cold PBS to terminate the induced glucose uptake. The cells are lyzed with 0.5 ml 1% Triton X-100 and radioactivity levels determined using a scintillation counter. The results are depicted in FIG. 7.

[7] = system: HaCaT; assay: Proliferation of non-cancer cell line (flow cytometry); conditions: 20 μM, 48 hours of treatment
Experimental: as §1, §2

O=C(O)CC/C=C\CC1COC(c2ccccc2Cl)OC1c1ccccc1O (racemic) [SN1, (Z)-6-(-2-(2-chlorophenyl)-4-(2-hydroxyphenyl)-1,3-dioxan-5-yl)hex-4-enoic acid]
inhibition of adipocyte differentiation [1]: no significant effect | inhibition at 20 µM [2]: 90% | increase in RXR transactivation [3]: no transactivation | increase in PPARdelta transactivation [4]: no or little increase in transactivation | activation of full-length hPPARdelta [5]: no activation | glucose uptake compared with Avandia [6]: same level of glucose uptake at 10 mM as Avandia at 1 mM | effect on non-cancer cell line HaCaT [7]: no effect
